Experimental data published in PubChem BioAssay (NCI).
Where “and” joins values, the source holds several entries; their conditions need not be identical. Identical values can stand only once.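 Briefly, cells in 96-well plates were exposed to five compound concentrations for 48 h, and endpoints were estimated by linear interpolation. GI50: concentration for 50% inhibition of growth. The concentration for full growth arrest is given as TGI.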 Where a SMILES comes first, the peptide text is derived from it. The star is where a group is joined. Cbz = O=C(OCc1ccccc1)*

Test system: OVCAR-8 ovarian
Assay: DTP human tumour cell line panel, 48 h

Row | Compound | TGI [µM]
1 | CC(=O)Nc1c(C(=N)C#N)ncn1CCO | > 100
2 | CN1CCCOC(c2ccc(Cl)cc2)O1 (stereo not given) | > 100
3 | Cc1c2ccc3ccccc3c2c[n+]2ccccc12 | 39.6
4 | O=C1/C(=C\c2cccc(Oc3ccccc3)c2)S(=O)(=O)C(c2ccccc2)N1c1cccc(Cl)c1 (stereo not given) | 69.4
5 | CCOC(=O)CCC1(CCC(=O)OCC)CCCCCCCCC(CCC(=O)OCC)(CCC(=O)OCC)C(=O)C1=O | > 100
6 | Cc1ccc2c(c1)CC1(Cc3cccc(C)c3C1=O)C2=O (stereo not given) | > 100
7 | O=C(Cn1c2ccc(Br)cc2c2nc3ccccc3nc21)NNC(=S)NC1CCCCC1 | 27.8

Test system: PC-3 prostate
Assay: DTP human tumour cell line panel, 48 h

Row | Compound | TGI | GI50 [µM]
8 | O=c1[nH]c2nc3ccccc3c(=O)n2/c1=C/c1cccs1 | > 100 µM | 
9 | O=C1c2c(Br)sc(Br)c2C(=O)C1(O)O | 51.1 µM | 
10 | O=C1CCSCCC(=O)Nc2ccccc2N1 | > 100 µM | 
11 | CC(=O)SC(C[N+](=O)[O-])c1ccc2c(c1)OCO2 (stereo not given) | 28.9 µM | 
12 | Cc1ccc(CSC(N)=Nc2ccccc2)cc1C | 60.5 µM | 
13 | C=C1CCCCCCCCC/C=C/1SCCCSC | > 100 µM | 
14 | CCOc1cc(NC(C)=O)ccc1C(=O)NNS(=O)(=O)c1ccc(NC(C)=O)cc1 | > 100 µM | 
15 | NCCCN(CCCN)CCc1cn(C(=O)c2ccccc2)cn1 | 21.5 µM | 
16 | CC1(C)O[C@H]2OC(CO)C(N=[N+]=[N-])[C@H]2O1 (stereo not given in full) | > 100 µM | 
17 | CCOC(=O)CCC(NC(=O)C(Cc1ccccc1)NC(=O)OCc1ccccc1)C(=O)OCC (stereo not drawn) (Cbz-Phe-Glu(OEt)-OEt; configuration not given here) | 32.1 µM | 
18 | O=C1C(Br)=CC2(C=C1Br)CCNC1=C2C(=O)c2ncccc2C1=O | 8.59 µM | 
19 | CCCCC1Cc2cc(O)ccc2-c2nc3cc(O)ccc3n21 (stereo not given) (tested in a mixture with another compound) | 53.3 µM | 
20 | CC(=O)c1c(N=[N+]=[N-])c2cccc3c2n(c1=O)CCC3 | 38.6 µM | 
21 | CCCCCCCCCCCC(=O)OC[C@@H](C[As](=O)(O)O)OC(=O)CCCCCCCCCCC | 8.14 µM | 
22 | COc1ccc(C2c3cc4c(cc3OC(N3CCOCC3)C2C)OCO4)cc1 (stereo not given) | > 100 µM | 
23 | CC(=O)c1ccc2c(c1)C(=O)c1sc(C(C)=O)cc1C2=O | 7.12 µM and 11.3 µM | 2.55
24 | O=[N+]([O-])c1c(F)c(F)c2c(c1F)N(CCCCCl)c1ccccc1S2 | 12.7 µM | 
25 | Cc1ccnc2c1C(=O)C1=C(OC(C)(C)CC1O)C2=O (stereo not given) | 13 µM | 
26 | CN1CCc2c(sc3[nH]c(=S)[nH]c(=S)c23)C1 | > 100 µM | 
27 | CC(=O)OC(CCC1(C)OC1COc1ccc(CCNC(=O)C=C(C)C)cc1)C(C)(C)OC(C)=O (stereo not given) | > 100 µM | 
28 | CC(=O)Nc1c(C(=N)C#N)ncn1CCO | > 100 µM | 
29 | CN1CCCOC(c2ccc(Cl)cc2)O1 (stereo not given) | > 100 µM | 
30 | Cc1c2ccc3ccccc3c2c[n+]2ccccc12 | > 100 µM | 
31 | O=C1/C(=C\c2cccc(Oc3ccccc3)c2)S(=O)(=O)C(c2ccccc2)N1c1cccc(Cl)c1 (stereo not given) | > 100 µM | 
32 | CCOC(=O)CCC1(CCC(=O)OCC)CCCCCCCCC(CCC(=O)OCC)(CCC(=O)OCC)C(=O)C1=O | > 100 µM | 
33 | Cc1ccc2c(c1)CC1(Cc3cccc(C)c3C1=O)C2=O (stereo not given) | > 100 µM | 
34 | O=C(Cn1c2ccc(Br)cc2c2nc3ccccc3nc21)NNC(=S)NC1CCCCC1 | 24 µM | 

Test system: SN12C renal
Assay: DTP human tumour cell line panel, 48 h

Row | Compound | TGI | GI50 [µM]
35 | O=c1[nH]c2nc3ccccc3c(=O)n2/c1=C/c1cccs1 | > 100 µM | 
36 | O=C1c2c(Br)sc(Br)c2C(=O)C1(O)O | > 100 µM | 
37 | O=C1CCSCCC(=O)Nc2ccccc2N1 | > 100 µM | 
38 | CC(=O)SC(C[N+](=O)[O-])c1ccc2c(c1)OCO2 (stereo not given) | 14.7 µM | 
39 | Cc1ccc(CSC(N)=Nc2ccccc2)cc1C | 38.5 µM | 
40 | C=C1CCCCCCCCC/C=C/1SCCCSC | > 100 µM | 
41 | CCOc1cc(NC(C)=O)ccc1C(=O)NNS(=O)(=O)c1ccc(NC(C)=O)cc1 | > 100 µM | 
42 | NCCCN(CCCN)CCc1cn(C(=O)c2ccccc2)cn1 | 26.2 µM | 
43 | CC1(C)O[C@H]2OC(CO)C(N=[N+]=[N-])[C@H]2O1 (stereo not given in full) | > 100 µM | 
44 | CCOC(=O)CCC(NC(=O)C(Cc1ccccc1)NC(=O)OCc1ccccc1)C(=O)OCC (stereo not drawn) (Cbz-Phe-Glu(OEt)-OEt; configuration not given here) | 37.7 µM | 
45 | O=C1C(Br)=CC2(C=C1Br)CCNC1=C2C(=O)c2ncccc2C1=O | 2.5 µM | 
46 | CCCCC1Cc2cc(O)ccc2-c2nc3cc(O)ccc3n21 (stereo not given) (tested in a mixture with another compound) | 36 µM | 
47 | CC(=O)c1c(N=[N+]=[N-])c2cccc3c2n(c1=O)CCC3 | 44.5 µM | 
48 | CCCCCCCCCCCC(=O)OC[C@@H](C[As](=O)(O)O)OC(=O)CCCCCCCCCCC | 19.8 µM | 
49 | COc1ccc(C2c3cc4c(cc3OC(N3CCOCC3)C2C)OCO4)cc1 (stereo not given) | > 100 µM | 
50 | CC(=O)c1ccc2c(c1)C(=O)c1sc(C(C)=O)cc1C2=O | 2.18 µM and 4.76 µM | 0.953
51 | O=[N+]([O-])c1c(F)c(F)c2c(c1F)N(CCCCCl)c1ccccc1S2 | 20.2 µM | 
52 | Cc1ccnc2c1C(=O)C1=C(OC(C)(C)CC1O)C2=O (stereo not given) | 12.4 µM | 
53 | CN1CCc2c(sc3[nH]c(=S)[nH]c(=S)c23)C1 | > 100 µM | 
54 | CC(=O)OC(CCC1(C)OC1COc1ccc(CCNC(=O)C=C(C)C)cc1)C(C)(C)OC(C)=O (stereo not given) | > 100 µM | 
55 | CC(=O)Nc1c(C(=N)C#N)ncn1CCO | > 100 µM | 
56 | CN1CCCOC(c2ccc(Cl)cc2)O1 (stereo not given) | > 100 µM | 
57 | Cc1c2ccc3ccccc3c2c[n+]2ccccc12 | 13.4 µM | 
58 | O=C1/C(=C\c2cccc(Oc3ccccc3)c2)S(=O)(=O)C(c2ccccc2)N1c1cccc(Cl)c1 (stereo not given) | > 100 µM | 
59 | CCOC(=O)CCC1(CCC(=O)OCC)CCCCCCCCC(CCC(=O)OCC)(CCC(=O)OCC)C(=O)C1=O | > 100 µM | 
60 | Cc1ccc2c(c1)CC1(Cc3cccc(C)c3C1=O)C2=O (stereo not given) | > 100 µM | 
61 | O=C(Cn1c2ccc(Br)cc2c2nc3ccccc3nc21)NNC(=S)NC1CCCCC1 | 35.6 µM | 

Test system: SW-620 colon
Assay: DTP human tumour cell line panel, 48 h

Row | Compound | TGI [µM]
62 | O=c1[nH]c2nc3ccccc3c(=O)n2/c1=C/c1cccs1 | > 100
63 | O=C1c2c(Br)sc(Br)c2C(=O)C1(O)O | > 100
64 | O=C1CCSCCC(=O)Nc2ccccc2N1 | > 100
65 | CC(=O)SC(C[N+](=O)[O-])c1ccc2c(c1)OCO2 (stereo not given) | 11.9
66 | Cc1ccc(CSC(N)=Nc2ccccc2)cc1C | > 100
67 | C=C1CCCCCCCCC/C=C/1SCCCSC | > 100
68 | CCOc1cc(NC(C)=O)ccc1C(=O)NNS(=O)(=O)c1ccc(NC(C)=O)cc1 | > 100
69 | NCCCN(CCCN)CCc1cn(C(=O)c2ccccc2)cn1 | 38.2
70 | CC1(C)O[C@H]2OC(CO)C(N=[N+]=[N-])[C@H]2O1 (stereo not given in full) | > 100
71 | CCOC(=O)CCC(NC(=O)C(Cc1ccccc1)NC(=O)OCc1ccccc1)C(=O)OCC (stereo not drawn) (Cbz-Phe-Glu(OEt)-OEt; configuration not given here) | 34.9
72 | O=C1C(Br)=CC2(C=C1Br)CCNC1=C2C(=O)c2ncccc2C1=O | 2.73
73 | CCCCC1Cc2cc(O)ccc2-c2nc3cc(O)ccc3n21 (stereo not given) (tested in a mixture with another compound) | 39.5
74 | CC(=O)c1c(N=[N+]=[N-])c2cccc3c2n(c1=O)CCC3 | 30.7
75 | CCCCCCCCCCCC(=O)OC[C@@H](C[As](=O)(O)O)OC(=O)CCCCCCCCCCC | 29.1
76 | COc1ccc(C2c3cc4c(cc3OC(N3CCOCC3)C2C)OCO4)cc1 (stereo not given) | > 100
77 | CC(=O)c1ccc2c(c1)C(=O)c1sc(C(C)=O)cc1C2=O | 50
78 | O=[N+]([O-])c1c(F)c(F)c2c(c1F)N(CCCCCl)c1ccccc1S2 | 8.78
79 | Cc1ccnc2c1C(=O)C1=C(OC(C)(C)CC1O)C2=O (stereo not given) | 10.4
80 | CN1CCc2c(sc3[nH]c(=S)[nH]c(=S)c23)C1 | > 100
81 | CC(=O)OC(CCC1(C)OC1COc1ccc(CCNC(=O)C=C(C)C)cc1)C(C)(C)OC(C)=O (stereo not given) | > 100
82 | CC(=O)Nc1c(C(=N)C#N)ncn1CCO | > 100
83 | CN1CCCOC(c2ccc(Cl)cc2)O1 (stereo not given) | > 100
84 | Cc1c2ccc3ccccc3c2c[n+]2ccccc12 | 80.5
85 | O=C1/C(=C\c2cccc(Oc3ccccc3)c2)S(=O)(=O)C(c2ccccc2)N1c1cccc(Cl)c1 (stereo not given) | 69
86 | CCOC(=O)CCC1(CCC(=O)OCC)CCCCCCCCC(CCC(=O)OCC)(CCC(=O)OCC)C(=O)C1=O | > 100
87 | Cc1ccc2c(c1)CC1(Cc3cccc(C)c3C1=O)C2=O (stereo not given) | > 100
88 | O=C(Cn1c2ccc(Br)cc2c2nc3ccccc3nc21)NNC(=S)NC1CCCCC1 | 29.2
